{
  "source": "patent US20160287545A1",
  "about": "“COMPOUND PARTICULARLY FOR TREATING DEPRESSION AND ANXIETY” (priority 2012, published 2016)",
  "key": {"CD1 mice": {"system": "CD1 mice", "test": "swimming test in CD1 mice, antidepressant action of inhaled terpenes versus imipramine", "format": "in vivo", "settings": "for isoeffect dose per body weight taking into account mean absorption factor (60%): 700x0.6, inhaling; for isoeffect dose with respect to imipramine: individual single inhalation giving approximately the same immobility time as imipramine, vaporized dose; for intrinsic activity (full agonist action, dose-effect comparison with imipramine): swimming test, inhaled; for antidepressant activity: vaporized, inhaled for 24 hours (12+12 hours); for isoeffect dose per body weight: versus 30 mg/kg of imipramine", "method": "4. For each test, CD-1® (ICR) Specific Pathogen Free NAF mice (16/18 g upon arrival) were used, originating from the supplier facility Charles River Laboratories, Calco, Italy; 5 mice for the control group, 5 mice for the reference test with imipramine, 5 mice for the substance tested in the first 4 tests and then 10 mice for all the other tests. The choice of CD1 mice was determined by the fact that it is considered to be the animal model suitable for performing the swimming test for the evaluation of substances having an antidepressant action.\n5. For terpene vaporization, “Elettromatt Turispharma” electric vaporizers were used (PCT/EP 97/01897, inventors Bevilacqua M, Zaccagna C A), heated to a constant temperature of 90° C.\nThe three groups of mice were placed in three transparent plastic boxes with the size of 150 cm×75 cm and a volume di […] at a controlled temperature (19.0-21.0° C.), in air prefiltered with an HEPA absolute filter without flow, humidity (40-50%) and darkness/light cycle (12 hours/12 hours).\nThe control group received the carrier (physiological solution) by IP pathway.\nThe administration path of the substances being considered was intraperitoneal for imipramine and the pulmonary path was used for the terpene substances being considered, always vaporized with the same electric vaporizers.\nReference test substance: imipramine 30 mg/Kg/ip=30.000 mcg/Kg/ip, equal to 0.6 mg per animal, administered 30 minutes before the test.\nSubsequent tests were performed with the individual components (35 mg repeated after 12 hours), in pairs (35 mg+35 mg, repeated after 12 hours) and then all three together (35+35+35 mg repeated after 12 hours).\nThe treatment was performed 30 minutes before the test for the control group and for the imipramine group intraperitoneally. The third group was subject, after the T0 test, to vaporization for 24 hours (12+12 hours) of the anonymous substance being considered."}, "mouse [1]": {"system": "mouse", "settings": "cited from earlier work"}, "[2]": {"settings": "cited from earlier work"}, "rat": {"system": "rat", "settings": "cited from earlier work"}, "mouse [3]": {"system": "mouse", "settings": "cited from earlier work", "remark": "listed apart in the source"}, "[4]": {"settings": "in vivo; cited from earlier work"}, "[5]": {"settings": "cited from earlier work", "remark": "listed apart in the source"}, "patients with bulimia": {"system": "patients with bulimia", "settings": "followed on for two years; cited from earlier work"}, "[6]": {"settings": "rat; cited from earlier work"}, "[7]": {"settings": "inhalation for 2 hours during a 50 W workload, healthy volunteers; cited from earlier work"}, "rats": {"system": "rats", "settings": "inhaling, swimming test; cited from earlier work"}, "[8]": {"settings": "200 and 400 mg/kg orally, mouse"}},
  "data": [
    {"compound": "CC12CCC(CC1)C(C)(C)O2", "note": "[1,8-cineol]", "values": [
      {"measurement": "isoeffect dose per body weight taking into account mean absorption factor (60%)", "setting": "CD1 mice", "value": 420, "unit": "mg/kg"},
      {"measurement": "isoeffect dose with respect to imipramine", "setting": "CD1 mice", "value": 70, "unit": "mg"},
      {"measurement": "intrinsic activity (full agonist action, dose-effect comparison with imipramine)", "setting": "CD1 mice", "value": 1},
      {"measurement": "antidepressant activity", "setting": "CD1 mice", "value": "evident antidepressant activity"},
      {"measurement": "isoeffect dose per body weight", "setting": "CD1 mice", "value": 700, "unit": "mg/kg"},
      {"measurement": "acute toxicity, oral dose", "setting": "mouse [1]", "value": 2480, "unit": "mg/kg"},
      {"measurement": "time to detection in blood after inhaling", "setting": "[2]", "value": 5, "unit": "min"},
      {"measurement": "time to concentration maximum in blood", "setting": "[2]; inhaling", "value": "≤ 18", "unit": "min"},
      {"measurement": "effect of pretreatment with naloxone on anti-nociceptive action", "setting": "rat; oral dose between 100 and 400 mg/kilograms", "value": "not canceled out by pretreatment with naloxone"},
      {"measurement": "anti-nociceptive action", "setting": "rat; rat", "value": "comparable to morphine"},
      {"measurement": "immobility time", "setting": "mouse [3]; [8]", "value": "significant increase in the immobility time"},
      {"measurement": "latency of pentobarbital sleep", "setting": "mouse [3]; [8]", "value": "reduced latency of pentobarbital sleep"},
      {"measurement": "dose observed in the literature", "setting": "mouse [3]; in the mouse", "value": "200 to 400", "unit": "mg/kg"},
      {"measurement": "motor coordination in the rotarod test", "setting": "mouse [3]; orally, mouse", "value": "no effects on motor coordination"}
    ]},
    {"compound": "CC(=O)O[C@@H]1CC[C@@]2(C)[C@@H](CC[C@]3(C)[C@@H]2C(=O)C=C2[C@@H]4[C@@H](C)[C@H](C)CC[C@]4(C)CC[C@]23C)[C@@]1(C)C(=O)O", "note": "[AKBA, acetyl-11-keto-beta-boswellic acid]", "values": [
      {"measurement": "brain/plasma ratio", "setting": "[4]", "value": "~0.81"}
    ]},
    {"compound": "C[C@H]1[C@H](C)CC[C@]2(C)CC[C@]3(C)C(=CC(=O)[C@@H]4[C@@]5(C)CC[C@@H](O)[C@](C)(C(=O)O)[C@@H]5CC[C@]43C)[C@H]12", "note": "[KBA, 11-keto-beta-boswellic acid]", "values": [
      {"measurement": "brain/plasma ratio", "setting": "[4]", "value": "approximately 0.51"}
    ]},
    {"compound": "CN(C)CCCN1c2ccccc2CCc2ccccc21", "note": "[imipramine, imipramine chloride hydrate]", "values": [
      {"measurement": "total mean immobility time", "setting": "CD1 mice; imipramine 30 mg/Kg ip 30 minutes before the test, mean of all 9 tests, 45 mice", "value": "41.11±16.12"},
      {"measurement": "solubility", "setting": "[5]", "value": 50, "unit": "mg/mL"},
      {"measurement": "patients with considerable success", "setting": "patients with bulimia", "value": "19 out of 20"}
    ]},
    {"compound": "C=C(C)[C@H]1CC=C(C)CC1", "note": "[limonene, (R)-(+)-limonene]", "values": [
      {"measurement": "isoeffect dose per body weight taking into account mean absorption factor (60%)", "setting": "CD1 mice", "value": 420, "unit": "mg/kg"},
      {"measurement": "isoeffect dose with respect to imipramine", "setting": "CD1 mice", "value": 70, "unit": "mg"},
      {"measurement": "intrinsic activity (full agonist action, dose-effect comparison with imipramine)", "setting": "CD1 mice", "value": 1},
      {"measurement": "antidepressant activity", "setting": "CD1 mice", "value": "evident antidepressant activity"},
      {"measurement": "isoeffect dose per body weight", "setting": "CD1 mice", "value": 700, "unit": "mg/kg"},
      {"measurement": "oral bioavailability", "setting": "[6]", "value": 43.0, "unit": "%"},
      {"measurement": "pulmonary uptake, of the administered quantity", "setting": "[7]", "value": 70, "unit": "%"},
      {"measurement": "immobility time", "setting": "rats", "value": "reduces significantly the immobility time"}
    ]}
  ]
}
